Our source for the IC50 values is US12522602B2, “Derivatives having 2,3-dihydro-1H-indene or 2,3-dihydrobenzofuran moiety or pharmaceutically acceptable salt thereof and pharmaceutical compositions comprising the same” (YUHAN CORPORATION, priority 2019, dated 2026).

For the experiment, the system named is GM1 production in Jurkat cells. The experiment is described as follows: cells. It counts as cell-based. The note with it: Homo sapiens, Jurkat, 72 h.
Turning to `CC1(C)Cc2cc(-c3ccccc3C(F)(F)F)ccc2C1NC(=O)O[C@@H]1CN2CCC1CC2` (stereo partly drawn) [Example 83, (S)-quinuclidin-3-yl (2,2-dimethyl-5-(2-(trifluoromethyl)phenyl)-2,3-dihydro-1H-inden-1-yl)carbamate], the IC50 (usually the concentration that gives 50% inhibition) is 3.7 nM. This lies in the single-digit nanomolar range. With `CC1(C)Cc2cc(-c3ccccc3OC(F)(F)F)ccc2C1NC(=O)O[C@@H]1CN2CCC1CC2` (stereo partly drawn) [Example 84, (S)-quinuclidin-3-yl (2,2-dimethyl-5-(2-(trifluoromethoxy)phenyl)-2,3-dihydro-1H-inden-1-yl)carbamate] the figure was 4.9 nM; with `Cc1ccc(-c2ccc3c(c2)CC(C)(C)C3NC(=O)O[C@@H]2CN3CCC2CC3)cc1` (stereo partly drawn) [Example 85, (S)-quinuclidin-3-yl (2,2-dimethyl-5-(p-tolyl)-2,3-dihydro-1H-inden-1-yl)carbamate], 11.6 nM. With `CC1(C)Cc2cc(-c3ccc(OC(F)F)cc3)ccc2C1NC(=O)O[C@@H]1CN2CCC1CC2` (stereo partly drawn) [Example 86, (S)-quinuclidin-3-yl (5-(4-(difluoromethoxy)phenyl)-2,2-dimethyl-2,3-dihydro-1H-inden-1-yl)carbamate] the figure was 13.8 nM; with `CC1(C)Cc2cc(-c3ccc(F)c(F)c3)ccc2C1NC(=O)O[C@@H]1CN2CCC1CC2` (stereo partly drawn) [Example 87, (S)-quinuclidin-3-yl (5-(3,4-difluorophenyl)-2,2-dimethyl-2,3-dihydro-1H-inden-1-yl)carbamate], 42.8 nM; with `CC1(C)Cc2cc(-c3cc(F)ccc3F)ccc2C1NC(=O)O[C@@H]1CN2CCC1CC2` (stereo partly drawn) [Example 88, (S)-quinuclidin-3-yl (5-(2,5-difluorophenyl)-2,2-dimethyl-2,3-dihydro-1H-inden-1-yl)carbamate], 11.1 nM. On to `CC1(C)Cc2cc(-c3ccc(F)cc3F)ccc2C1NC(=O)O[C@@H]1CN2CCC1CC2` (stereo partly drawn) [Example 89, (S)-quinuclidin-3-yl (5-(2,4-difluorophenyl)-2,2-dimethyl-2,3-dihydro-1H-inden-1-yl)carbamate], for which the IC50 was 50 nM.

In turn, `CC1(C)Cc2cc(-c3cc(F)cc(F)c3)ccc2C1NC(=O)O[C@@H]1CN2CCC1CC2` (stereo partly drawn) [Example 90, (S)-quinuclidin-3-yl (5-(3,5-difluorophenyl)-2,2-dimethyl-2,3-dihydro-1H-inden-1-yl)carbamate] yielded an IC50 of 37.9 nM. With `CC1(C)Cc2cc(-c3cccc(F)c3F)ccc2C1NC(=O)O[C@@H]1CN2CCC1CC2` (stereo partly drawn) [Example 91, (S)-quinuclidin-3-yl (5-(2,3-difluorophenyl)-2,2-dimethyl-2,3-dihydro-1H-inden-1-yl)carbamate] the figure was 25.1 nM; with `CC1(C)Cc2cc(-c3ccc(Cl)c(Cl)c3)ccc2C1NC(=O)O[C@@H]1CN2CCC1CC2` (stereo partly drawn) [Example 92, (S)-quinuclidin-3-yl (5-(3,4-dichlorophenyl)-2,2-dimethyl-2,3-dihydro-1H-inden-1-yl)carbamate], 43.9 nM; with `CC1(C)Cc2cc(-c3cc(Cl)ccc3Cl)ccc2C1NC(=O)O[C@@H]1CN2CCC1CC2` (stereo partly drawn) [Example 93, (S)-quinuclidin-3-yl (5-(2,5-dichlorophenyl)-2,2-dimethyl-2,3-dihydro-1H-inden-1-yl)carbamate], 10.5 nM. The value for `CC1(C)Cc2cc(-c3cc(Cl)cc(Cl)c3)ccc2C1NC(=O)O[C@@H]1CN2CCC1CC2` (stereo partly drawn) [Example 94, (S)-quinuclidin-3-yl (5-(3,5-dichlorophenyl)-2,2-dimethyl-2,3-dihydro-1H-inden-1-yl)carbamate] was 23.6 nM. The value for `CC1(C)Cc2cc(-c3ccc(F)c(F)c3F)ccc2C1NC(=O)O[C@@H]1CN2CCC1CC2` (stereo partly drawn) [Example 95, (S)-quinuclidin-3-yl (2,2-dimethyl-5-(2,3,4-trifluorophenyl)-2,3-dihydro-1H-inden-1-yl)carbamate] was 49.7 nM; that for `CC1(C)Cc2cc(-c3cc(F)c(F)cc3F)ccc2C1NC(=O)O[C@@H]1CN2CCC1CC2` (stereo partly drawn) [Example 96, (S)-quinuclidin-3-yl (2,2-dimethyl-5-(2,4,5-trifluorophenyl)-2,3-dihydro-1H-inden-1-yl)carbamate] was 16.2 nM; that for `COCCOc1ccc(-c2ccc3c(c2)CC(C)(C)C3NC(=O)O[C@@H]2CN3CCC2CC3)cc1` (stereo partly drawn) [Example 97, (S)-quinuclidin-3-yl (5-(4-(2-methoxyethoxy)phenyl)-2,2-dimethyl-2,3-dihydro-1H-inden-1-yl)carbamate] was 9.3 nM. `COCCOc1cccc(-c2ccc3c(c2)CC(C)(C)C3NC(=O)O[C@@H]2CN3CCC2CC3)c1` (stereo partly drawn) [Example 98, (S)-quinuclidin-3-yl (5-(3-(2-methoxyethoxy)phenyl)-2,2-dimethyl-2,3-dihydro-1H-inden-1-yl)carbamate] showed an IC50 of 7.5 nM.

As to `COCCOc1ccccc1-c1ccc2c(c1)CC(C)(C)C2NC(=O)O[C@@H]1CN2CCC1CC2` (stereo partly drawn) [Example 99, (S)-quinuclidin-3-yl (5-(2-(2-methoxyethoxy)phenyl)-2,2-dimethyl-2,3-dihydro-1H-inden-1-yl)carbamate], the IC50 was determined as 22.2 nM. The value for `COCOc1ccc(-c2ccc3c(c2)CC(C)(C)C3NC(=O)O[C@@H]2CN3CCC2CC3)cc1` (stereo partly drawn) [Example 100, (S)-quinuclidin-3-yl (5-(4-(methoxymethoxy)phenyl)-2,2-dimethyl-2,3-dihydro-1H-inden-1-yl)carbamate] was 21.5 nM; that for `COCOc1cccc(-c2ccc3c(c2)CC(C)(C)C3NC(=O)O[C@@H]2CN3CCC2CC3)c1` (stereo partly drawn) [Example 101, (S)-quinuclidin-3-yl (5-(3-(methoxymethoxy)phenyl)-2,2-dimethyl-2,3-dihydro-1H-inden-1-yl)carbamate] was 8.7 nM; that for `COCOc1ccccc1-c1ccc2c(c1)CC(C)(C)C2NC(=O)O[C@@H]1CN2CCC1CC2` (stereo partly drawn) [Example 102, (S)-quinuclidin-3-yl (5-(2-(methoxymethoxy)phenyl)-2,2-dimethyl-2,3-dihydro-1H-inden-1-yl)carbamate] was 17.4 nM. The value for `COc1cccc(-c2ccc3c(c2)CC(C)(C)C3NC(=O)O[C@@H]2CN3CCC2CC3)c1` (stereo partly drawn) [Example 103, (S)-quinuclidin-3-yl (5-(3-methoxyphenyl)-2,2-dimethyl-2,3-dihydro-1H-inden-1-yl)carbamate] was 19.5 nM; that for `CCOc1cccc(-c2ccc3c(c2)CC(C)(C)C3NC(=O)O[C@@H]2CN3CCC2CC3)c1` (stereo partly drawn) [Example 104, (S)-quinuclidin-3-yl (5-(3-ethoxyphenyl)-2,2-dimethyl-2,3-dihydro-1H-inden-1-yl)carbamate] was 16.9 nM; that for `CC(C)Oc1cccc(-c2ccc3c(c2)CC(C)(C)C3NC(=O)O[C@@H]2CN3CCC2CC3)c1` (stereo partly drawn) [Example 105, (S)-quinuclidin-3-yl (5-(3-isopropoxyphenyl)-2,2-dimethyl-2,3-dihydro-1H-inden-1-yl)carbamate] was 15.2 nM. The value for `CN(C)c1cccc(-c2ccc3c(c2)CC(C)(C)C3NC(=O)O[C@@H]2CN3CCC2CC3)c1` (stereo partly drawn) [Example 106, (S)-quinuclidin-3-yl (5-(3-(dimethylamino)phenyl)-2,2-dimethyl-2,3-dihydro-1H-inden-1-yl)carbamate] was 5.8 nM.

The molecule `CSc1cccc(-c2ccc3c(c2)CC(C)(C)C3NC(=O)O[C@@H]2CN3CCC2CC3)c1` (stereo partly drawn) [Example 107, (S)-quinuclidin-3-yl (2,2-dimethyl-5-(3-(methylthio)phenyl)-2,3-dihydro-1H-inden-1-yl)carbamate] came in with an IC50 of 6.3 nM.

`CCc1cccc(-c2ccc3c(c2)CC(C)(C)C3NC(=O)O[C@@H]2CN3CCC2CC3)c1` (stereo partly drawn) [Example 108, (S)-quinuclidin-3-yl (5-(3-ethylphenyl)-2,2-dimethyl-2,3-dihydro-1H-inden-1-yl)carbamate] came in with an IC50 of 7.6 nM. With `CC(C)c1cccc(-c2ccc3c(c2)CC(C)(C)C3NC(=O)O[C@@H]2CN3CCC2CC3)c1` (stereo partly drawn) [Example 109, (S)-quinuclidin-3-yl (5-(3-isopropylphenyl)-2,2-dimethyl-2,3-dihydro-1H-inden-1-yl)carbamate] the figure was 7.8 nM; with `CC(C)(C)c1cccc(-c2ccc3c(c2)CC(C)(C)C3NC(=O)O[C@@H]2CN3CCC2CC3)c1` (stereo partly drawn) [Example 110, (S)-quinuclidin-3-yl (5-(3-(tert-butyl)phenyl)-2,2-dimethyl-2,3-dihydro-1H-inden-1-yl)carbamate], 15.1 nM; with `CC1(C)Cc2cc(-c3ccc4c(c3)OC(F)(F)O4)ccc2C1NC(=O)O[C@@H]1CN2CCC1CC2` (stereo partly drawn) [Example 111, (S)-quinuclidin-3-yl (5-(2,2-difluorobenzo[d][1,3]dioxol-5-yl)-2,2-dimethyl-2,3-dihydro-1H-inden-1-yl)carbamate], 32 nM. The value for `CC1(C)Cc2cc(-c3ccc4c(c3)OCCO4)ccc2C1NC(=O)O[C@@H]1CN2CCC1CC2` (stereo partly drawn) [Example 112, (S)-quinuclidin-3-yl (5-(2,3-dihydrobenzo[b][1,4]dioxin-6-yl)-2,2-dimethyl-2,3-dihydro-1H-inden-1-yl)carbamate] was 35.6 nM; that for `CC1(C)Cc2cc(-c3ccc4c(c3)CCO4)ccc2C1NC(=O)O[C@@H]1CN2CCC1CC2` (stereo partly drawn) [Example 113, (S)-quinuclidin-3-yl (5-(2,3-dihydrobenzofuran-5-yl)-2,2-dimethyl-2,3-dihydro-1H-inden-1-yl)carbamate] was 54.8 nM. With `CC1(C)Cc2cc(-c3cccc(OCCN4CCOCC4)c3)ccc2C1NC(=O)O[C@@H]1CN2CCC1CC2` (stereo partly drawn) [Example 114, (S)-quinuclidin-3-yl (2,2-dimethyl-5-(3-(2-morpholinoethoxy)phenyl)-2,3-dihydro-1H-inden-1-yl)carbamate] the figure was 33.7 nM; with `CC1(C)Cc2cc(-c3ccc(OCCF)cc3)ccc2C1NC(=O)O[C@@H]1CN2CCC1CC2` (stereo partly drawn) [Example 115, (S)-quinuclidin-3-yl (5-(4-(2-fluoroethoxy)phenyl)-2,2-dimethyl-2,3-dihydro-1H-inden-1-yl)carbamate], 38.3 nM; with `CC1(C)Cc2cc(-c3ccc(OCC(F)(F)F)cc3)ccc2C1NC(=O)O[C@@H]1CN2CCC1CC2` (stereo partly drawn) [Example 116, (S)-quinuclidin-3-yl (2,2-dimethyl-5-(4-(2,2,2-trifluoroethoxy)phenyl)-2,3-dihydro-1H-inden-1-yl)carbamate], 16.7 nM.
